Where “and” joins values, the source holds several entries; their conditions need not be identical. Identical values can stand only once. Entries after “also recorded” stand apart in the source; their conditions may differ.
Columns and labels:
Assay type in all cases: in vivo, Sprague-Dawley rats
[1] = Urinary excretion after i.v. infusion; settings: rat, urine, iv, read-out: Proportion of administered dose appearing in urine
Procedure: (§1) Adult male Sprague-Dawley rats (body weight 200-230 g) were anesthetized by an intraperitoneal injection of pentobarbital (Nembutal, 7.5 mg/100 g body weight), and maintained under sedation by additional doses. The right jugular vein and the common bile duct were cannulated using PE-50 polyethylene tubing (Clay-Adams, Parsippany, N.J.). Body temperature was maintained throughout the experiment at 37° C. using a rectal probe and a thermostatically controlled heating pad (Harvard Apparatus Co., Inc., Millis, Mass.). Saline was infused at a rate of 1.0 ml/h using a Harvard pump (Harvard Apparatus Co., Inc.) into the jugular vein for a control period of 2h. After collecting two 10 minute bile samples for base-line analysis, the bile acids were individually infused intravenously (i.v.) for 30 minutes in stepwise increasing doses (0.5, 1.0, and 2.0 μmol/min/100 g body weight). Bile acid solutions were prepared in 3% human albumin in 0.45% saline. Six animals were used for each experiment and bile was collected every 10 minutes into preweighed tubes. At the end of the experiment, blood was obtained by cardiac puncture, and urine was obtained by aspiration of the bladder. All biological specimens were stored at -20° C. This animal study protocol (#1 B 10044) was approved by the Bioethics committee of the Children's Hospital Medical Center (Cincinnati, Ohio).
(§2) Negative ion fast atom bombardment-mass spectrometry (FAB-MS) spectra of bile samples, urine and synthetic compounds were obtained after placing the equivalent of approximately 1 μl of the original bile extract, 10 μl-50 μl of the urine extract and jig quantities of synthetic bile acids dissolved in methanol onto a small drop of a glycerol matrix spotted on a copper target of the FAB probe. This probe was introduced directly into the ion source of the mass spectrometer and a beam of fast atoms of either xenon generated with a saddle field atom gun (ion Tech, Teddington, Middlesex, UK) operated at 8 kV and 20 μA, or cesium generated from cesium iodine (35 kV), was fired at the target containing the sample. Negative ion spectra were obtained over the mass range of 50-1000 Da/e.
Urine collections from the six animals were pooled and the bile acids were extracted by liquid-solid extraction using a Bond Elut-C18 cartridge and bile acids were analyzed by GC-MS after solvolysis, hydrolysis and derivatization.

biliary lipid secretion = test: Biliary lipid (cholesterol, phospholipid) secretion during i.v. infusion; settings: for Cholesterol output, maximal change / Phospholipid output, maximal change: mean ± SEM, six animals
Procedure: as §1
Bile volume was determined gravimetrically assuming a density of 1 g/ml. Total 3α-hydroxy bile acid concentration in the bile was measured enzymatically before solvolysis (nonsulfated bile acids) and after solvolysis (total bile acids) (Mashige, F., et al., Direct spectrometry of total bile acids in serum. Clin. Chem. 27: 1352-1356 (1981)). The bile acid output was calculated by multiplying the rate of bile-flow by the bile acid concentration. Biliary phospholipids were determined by an enzymatic procedure based on the choline oxidase method (Nippon Shoji Kaisha, Ltd., Osaka, Japan) (Grantz, D., et al., Enzymatic measurement of choline-containing phospholipids in bile. J. Lipid Res. 22: 273-276 (1981)). Cholesterol was also measured enzymatically (Boehringer Mannehim, Indianapolis, Ind.) (Fromm, H., et al., Use of a simple enzymatic assay for cholesterol analysis in human bile. J. Lipid Res. 21: 259-261 (1980)).
Results were expressed as mean±standard error of mean (SEM). Bile-flow and biliary lipid output were expressed as μl /min/g liver and nmol/min/g liver, respectively. Statistical analysis was made using INSTAT program (Graphpad Software Inc., San Diego, Calif.). Parametric data among groups were analyzed using Student's t-test. The statistical comparisons between the different groups were made by one-way analysis of variance (ANOVA). […] Linear regression analysis was performed. The choleretic activity of each bile acid was determined from the slope of regression line of the correlation between the bile acid secretion rate and bile-flow and was expressed as […]. Comparisons between slopes were made by one-way ANOVA.

[2] = Hepatic biotransformation of infused bile acid (negative ion FAB-MS, conjugate separation); settings: i.v. infusion
Procedure: as §1, §2
For the determination of hepatic biotransformation of the infused bile acid, bile collections from the six animal were pooled and biliary bile acids were determined by GC-MS after extraction, solvolysis, hydrolysis, and derivatization. Quantification of bile acids was achieved using GC, by comparing the peak height response of the individual bile acid with the peak height response obtained from the internal standard, nordeoxycholic acid added to the initial sample of bile. Identification of a bile acid was made on the basis of the retention index relative to a homologous series of n-alkanes, referred to as the methylene unit value (MU) and the fragmentation pattern of the mass spectrum was compared with authentic standards. A list of over 100 mass spectra of authentic bile acid standards and retention indices was recently compiled as a reference source (Lawson, A. M., et al, Mass spectrometry of bile acids, The Bile Acids, Vol. 4, Methods and Applications, pp. 167-267 (1988)).
In the case of the animals infused with UDCA-3S, bile was collected during the final period of bile acid infusion ([…]). Bile acids were solvolyzed and separated into groups based on their mode of conjugation using the lipophilic anion exchange gel, diethylaminohydroxypropyl Sephadex LH-20; Packard Instruments, Groningen, The Netherlands). Bile acid composition was determined in each fraction by GC-MS after hydrolysis and preparation of the Me-TMS ethers.

Row | SMILES | dose excreted [1] | Biliary cholesterol secretion (in words) (biliary lipid secretion) | Biliary phospholipid secretion (in words) (biliary lipid secretion) | Cholesterol output, maximal change (biliary lipid secretion) | Phospholipid output, maximal change (biliary lipid secretion) | Hepatic biotransformation / form secreted in bile (in words) [2] | Hepatic biotransformation / form secreted in bile (in words) ([2]; listed as UDCA-7-sulfate) | Hepatic biotransformation / form secreted in bile (in words) ([2]; listed as C-3 sulfate of UDCA) | Hepatic biotransformation / form secreted in bile (in words) ([2]; listed as UDCA-disulfate)
1 | C[C@H](CCC(=O)O)[C@H]1CC[C@H]2[C@@H]3[C@@H](OS(=O)(=O)O)C[C@@H]4C[C@H](O)CC[C@]4(C)[C@H]3CC[C@]12C [UDCA-7S, ursodeoxycholic acid 7-sulfate] | 0.9% | cholesterol secretion was maintained | increased significantly | 1.76 ± 0.23 nmol/min/g liver and 1.76±0.21 nmol/min/g liver | 15.00 ± 1.70 nmol/min/g liver | No other significant ions were present to indicate further metabolic transformation; also recorded: not amidated with taurine or glycine | secreted into bile unchanged |  | 
2 | C[C@H](CCC(=O)O)[C@H]1CC[C@H]2[C@@H]3[C@@H](O)C[C@@H]4C[C@H](O)CC[C@]4(C)[C@H]3CC[C@]12C [UDCA, 3 alpha, 7 beta-dihydroxy-5 beta-cholan-24oic acid, reference compound] | 0.01% | significant decline | increased significantly | 1.88 ± 0.19 nmol/min/g liver | 17.20 ± 1.90 nmol/min/g liver | almost exclusively conjugated with taurine and glycine; also recorded: mainly conjugated with taurine, and to a lesser extent was converted to glycine, sulfate and flucuronide conjugates |  |  | 
3 | C[C@H](CCC(=O)O)[C@H]1CC[C@H]2[C@@H]3[C@@H](O)C[C@@H]4C[C@H](OS(=O)(=O)O)CC[C@]4(C)[C@H]3CC[C@]12C [UDCA-3S, ursodeoxycholic acid 3-sulfate] | 2.8% | significantly reduced the biliary cholesterol output | significant reduction in biliary phospholipids | 0.40 ± 0.02 nmol/min/g liver and 0.40±0.05 nmol/min/g liver | 4.00 ± 0.50 nmol/min/g liver |  |  | secreted into bile to a limited extent unchanged, but also underwent appreciable amidation with taurine and glycine and further hydroxylation | 
4 | C[C@H](CCC(=O)O)[C@H]1CC[C@H]2[C@@H]3[C@@H](OS(=O)(=O)O)C[C@@H]4C[C@H](OS(=O)(=O)O)CC[C@]4(C)[C@H]3CC[C@]12C [UDCA-DS, ursodeoxycholic acid 3,7-disulfate] | 2.2% | significantly reduced the biliary cholesterol output | significant reduction in biliary phospholipids | 0.37 ± 0.07 nmol/min/g liver and 0.37±0.12 nmol/min/g liver | 2.50 ± 0.30 nmol/min/g liver | No other ions were present to suggest further metabolic transformation; also recorded: not amidated with taurine or glycine |  |  | secreted into bile unchanged

Source: patent US5763435A, “Sulfate conjugates of ursodeoxycholic acid, and their beneficial use in inflammatory disorders” (priority 1995, dated 1998)
